# Where two headings read alike, the source gives them in different places.
# How the values were obtained:
# [1] = system: MCF-7 (breast carcinoma) cell line; assay: MTT assay, MCF-7; format: cell-based, human; details: mean ± SD, triplicate
# From the text: (§1) The cytotoxic activity of the designed compounds (4a-4l) was obtained by MTT assay (standard 3-(4,5-dimethylthiazol-yl)-2,5-diphenyl-tetrazolium bromide) according to our previous protocols. Two human cancer cell lines including MCF-7 (breast carcinoma) and HEPG-2 (Hepatocellular carcinoma) were purchased from the National Cell Bank of Iran (NCBI, Pasteur Institute, Tehran, Iran). RPMI 1640 culture media was used to culture cancer cell lines. The media was supplemented with 10% fetal bovine serum (FBS) and 1% penicillin–streptomycin (Gibco, USA), and the cells were kept at 37 °C in a humidified CO2 incubator. For the MTT assay, trypsin/EDTA 0.5% solution (Gibco/USA) was applied to harvest cells and seeded in 96-well microplates at a density of 1 × 10^4 cells per well [26]. Five different concentrations of the designed compounds and Cisplatin as the positive control (1–200 μM) were used for treatment in triplicate times. Three untreated wells were used as the negative control. After 72 h, the media was changed by 100 μL fresh MTT solution and incubated for 4 h at 37 °C in the incubator to obtain formazan purple crystals. Finally, the media was removed and 150 μL of DMSO was added and incubated at 37 °C in dark for 10 min to dissolve the crystals. The absorbance of individual wells was read at 490 nm using a microplate ELISA reader. Excel 2016 and Curve Expert 1.4 were used to analyze the data. The data were presented as mean ± SD for each analysis.
# [2] = system: normal lung cell line (MRC-5); assay: MTT assay, MRC-5 normal cells; format: cell-based
# [3] = system: HEPG-2 (Hepatocellular carcinoma) cell line; assay: MTT assay, HEPG-2; format: cell-based, human; details: mean ± SD, triplicate
# From the text: as §1
# [4] = system: a studied cancer cell line; parameters: method as in PMID 32736079; details: cited from earlier work
# [5] = system: MCF-7 and HEPG-2 cell lines; assay: MTT assay, ranges over both cancer cell lines; format: cell-based; details: Homo sapiens; range spans both cell lines
# From the text: as §1, with “Excel 2016 and Curve Expert 1.4 were used to analyze the data. The data were presented as mean ± SD for each analysis.” left out
# Huha cell line = system: Huha cell line; parameters: method as in PMID 33808444; details: cited from earlier work
# Hela cell line = system: Hela cell line; parameters: method as in PMID 33808444; details: cited from earlier work
# [6] = Homo sapiens, MRC5, read-out: IC50 ± SD, MRC-5
melting point,"IC50 ([1]; Homo sapiens, MCF7, 72 h)","IC50 ([3]; Homo sapiens, HepG2, 72 h)",SMILES,"IC50 [2, 6]",also measured
138 to 140 °C,92 ± 2.19 µM,,"Cc1nccn1-c1cc(=O)n(C)c(=O)n1Cc1ccccc1 [Compound 4e, 3-methyl-1-(benzyl) 6-(2-methyl-H1-imidazol-1-yl) pyrimidine-2,4-(H1, H3) dione]",> 200 µM,
160 to 162 °C,109 ± 3.74 µM,106 ± 3.03 µM,"Cc1nccn1-c1cc(=O)n(C)c(=O)n1Cc1ccc(Br)cc1 [Compound 4g, 3-methyl-1-(4-bromobenzyl)-6-(2-methyl-H1-imidazole-1-yl) pyrimidine-2,4-(H1, H3) dione]",> 200 µM,
,,,O=c1[nH]c(=O)n(Cc2ccc(-c3noc(-c4ccc(-c5ccccc5)cc4)n3)cc2)cc1F [A],,IC50 [4]: 0.88 µM
125 to 128 °C,43.1 ± 2.07 µM,65.4 ± 2.15 µM,"Cc1cccc(Cn2c(-n3cncn3)cc(=O)n(C)c2=O)c1 [Compound 4i, 3-methyl-1-(3-methylbenzyl)-6-(H1-1,2,4-triazole-1-yl) pyrimidine-2,4-(H1, H3) dione]",> 200 µM,
,,,"N.N.[Cl][Pt][Cl] [Cis platin, Cisplatin, reference compound]",,"IC50 ([1]; 72 h): 20.7 ± 0.83 µM; IC50 ([2]; read-out: IC50 ± SD, MRC-5): 45.2 ± 2.5 µM; IC50 ([3]; 72 h): 15.9 ± 1.83 µM"
110 to 113 °C,131 ± 3.1 µM,177 ± 4.06 µM,"Cn1c(=O)cc(-n2ccnc2)n(Cc2ccc(Br)cc2)c1=O [Compound 4d, 3-methyl-1-(4-bromobenzyl)-6-(H1-imidazole-1-yl) pyrimidine-2,4-(H1, H3) dione]",> 200 µM,
138 to 142 °C,150.5 ± 0.77 µM,193 ± 7.98 µM,"Cn1c(=O)cc(-n2ccnc2)n(Cc2ccccc2)c1=O [Compound 4a, 3-methyl-1-(benzyl)-6-(H1-imidazole-1-yl) pyrimidine-2,4-(H1, H3) dione]",> 200 µM,
116 to 118 °C,16.2 ± 1.02 µM,7.56 ± 5.28 µM,"Cc1ccc(Cn2c(-n3cncn3)cc(=O)n(C)c2=O)cc1 [Compound 4j, 3-methyl-1-(4-methylbenzyl)-6-(H1-1,2,4-triazole-1-yl) pyrimidine-2,4-(H1, H3) dione]",57.3 ± 2.08 µM,
100 to 102 °C,26.1 ± 4.41 µM,27.2 ± 1.66 µM,"Cc1ccc(Cn2c(-n3ccnc3)cc(=O)n(C)c2=O)cc1 [Compound 4c, 3-methyl-1-(4-methylbenzyl)-6-(H1-imidazole-1-yl) pyrimidine-2,4-(H1, H3) dione]",101 ± 3.02 µM,IC50 [5]: 17.1 to 48.5 µM
120 to 122 °C,65.5 ± 3.1 µM,55.9 ± 6.58 µM,"Cc1ccc(Cn2c(-n3ccnc3C)cc(=O)n(C)c2=O)cc1 [Compound 4f, 3-methyl-1-(4-methylbenzyl)-6-(2-methyl-H1-imidazole-1-yl) pyrimidine-2,4-(H1, H3) dione]",> 200 µM,
,,,Cc1ccc(Cn2cc(Cn3c(Cl)cc(=O)n(C)c3=O)nn2)cc1 [B],,IC50 (Huha cell line): 7.7 µM; IC50 (Hela cell line): 4.5 µM
123 to 124 °C,17.1 ± 1.3 µM,48.5 ± 1.97 µM,"Cc1cccc(Cn2c(-n3ccnc3)cc(=O)n(C)c2=O)c1 [Compound 4b, 3-methyl-1-(3-methylbenzyl)-6-(H1-imidazole-1-yl) pyrimidine-2,4-(H1, H3) dione]",61.8 ± 2.3 µM,IC50 [5]: 17.1 to 48.5 µM
91 to 93 °C,,,"Cn1c(=O)cc(-n2cncn2)n(Cc2ccccc2)c1=O [Compound 4h, 3-methyl-1-(benzyl)-6-(H1-1,2,4-triazole-1-yl) pyrimidine-2,4-(H1, H3) dione]",,
